# According to ChEMBL document CHEMBL5357082, “Identification and Optimization of Small Molecule Pyrazolopyrimidine TLR7 Agonists for Applications in Immuno-oncology” (ACS Med Chem Lett, 2024):
# pEC50, pIC50: −log10 of the molar value.
# What was measured:
# Toll-like receptor 7 = target: T1, Toll-like receptor 7 (Homo sapiens, UniProt Q9NYK1); assay: Agonist activity at human TLR7 in HEK-Blue hTLR7 cells harboring SEAP reporter transgene incubated for 18 hrs by quanti-blue reagent based assay; assay type: cell-based
# T1 sequence (Q9NYK1 whole entry): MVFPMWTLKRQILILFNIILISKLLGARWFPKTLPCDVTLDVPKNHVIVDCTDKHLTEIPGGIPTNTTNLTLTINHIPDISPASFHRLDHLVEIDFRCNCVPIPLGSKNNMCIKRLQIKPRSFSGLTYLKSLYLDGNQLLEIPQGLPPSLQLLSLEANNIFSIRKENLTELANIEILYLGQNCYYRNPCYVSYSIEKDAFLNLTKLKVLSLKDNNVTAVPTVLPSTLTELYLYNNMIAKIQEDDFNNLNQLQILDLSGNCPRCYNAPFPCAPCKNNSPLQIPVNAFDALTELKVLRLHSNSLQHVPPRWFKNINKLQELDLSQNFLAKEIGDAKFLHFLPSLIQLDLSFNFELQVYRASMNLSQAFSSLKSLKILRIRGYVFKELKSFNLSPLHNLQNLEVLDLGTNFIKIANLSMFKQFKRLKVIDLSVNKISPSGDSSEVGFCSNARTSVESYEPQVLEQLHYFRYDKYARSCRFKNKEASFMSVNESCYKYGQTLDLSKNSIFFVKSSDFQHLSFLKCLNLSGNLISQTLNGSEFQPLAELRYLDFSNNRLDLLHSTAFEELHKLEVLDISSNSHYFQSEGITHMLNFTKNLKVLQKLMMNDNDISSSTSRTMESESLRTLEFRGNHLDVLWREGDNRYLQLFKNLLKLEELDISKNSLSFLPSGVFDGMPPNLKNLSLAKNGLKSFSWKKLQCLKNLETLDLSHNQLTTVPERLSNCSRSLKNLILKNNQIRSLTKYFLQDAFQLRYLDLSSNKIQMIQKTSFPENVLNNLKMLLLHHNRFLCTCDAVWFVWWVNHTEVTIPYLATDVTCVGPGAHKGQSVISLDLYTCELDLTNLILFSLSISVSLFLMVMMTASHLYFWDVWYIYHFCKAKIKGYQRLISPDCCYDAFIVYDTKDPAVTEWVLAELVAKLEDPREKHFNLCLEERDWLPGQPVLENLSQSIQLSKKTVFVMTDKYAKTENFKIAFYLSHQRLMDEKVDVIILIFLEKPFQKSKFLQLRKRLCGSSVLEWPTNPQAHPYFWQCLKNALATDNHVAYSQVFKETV
# [1] = AUClast in nontumor bearing Balb/C mouse at 0.5 mg/kg; assay type: ADME, organism-based; parameters: dose 0.5 mg/kg; conditions: in vivo
# Toll-like receptor 8 = target: T2, Toll-like receptor 8 (Homo sapiens, UniProt Q9NR97); assay: Agonist activity at human TLR8
# T2 sequence (Q9NR97 whole entry): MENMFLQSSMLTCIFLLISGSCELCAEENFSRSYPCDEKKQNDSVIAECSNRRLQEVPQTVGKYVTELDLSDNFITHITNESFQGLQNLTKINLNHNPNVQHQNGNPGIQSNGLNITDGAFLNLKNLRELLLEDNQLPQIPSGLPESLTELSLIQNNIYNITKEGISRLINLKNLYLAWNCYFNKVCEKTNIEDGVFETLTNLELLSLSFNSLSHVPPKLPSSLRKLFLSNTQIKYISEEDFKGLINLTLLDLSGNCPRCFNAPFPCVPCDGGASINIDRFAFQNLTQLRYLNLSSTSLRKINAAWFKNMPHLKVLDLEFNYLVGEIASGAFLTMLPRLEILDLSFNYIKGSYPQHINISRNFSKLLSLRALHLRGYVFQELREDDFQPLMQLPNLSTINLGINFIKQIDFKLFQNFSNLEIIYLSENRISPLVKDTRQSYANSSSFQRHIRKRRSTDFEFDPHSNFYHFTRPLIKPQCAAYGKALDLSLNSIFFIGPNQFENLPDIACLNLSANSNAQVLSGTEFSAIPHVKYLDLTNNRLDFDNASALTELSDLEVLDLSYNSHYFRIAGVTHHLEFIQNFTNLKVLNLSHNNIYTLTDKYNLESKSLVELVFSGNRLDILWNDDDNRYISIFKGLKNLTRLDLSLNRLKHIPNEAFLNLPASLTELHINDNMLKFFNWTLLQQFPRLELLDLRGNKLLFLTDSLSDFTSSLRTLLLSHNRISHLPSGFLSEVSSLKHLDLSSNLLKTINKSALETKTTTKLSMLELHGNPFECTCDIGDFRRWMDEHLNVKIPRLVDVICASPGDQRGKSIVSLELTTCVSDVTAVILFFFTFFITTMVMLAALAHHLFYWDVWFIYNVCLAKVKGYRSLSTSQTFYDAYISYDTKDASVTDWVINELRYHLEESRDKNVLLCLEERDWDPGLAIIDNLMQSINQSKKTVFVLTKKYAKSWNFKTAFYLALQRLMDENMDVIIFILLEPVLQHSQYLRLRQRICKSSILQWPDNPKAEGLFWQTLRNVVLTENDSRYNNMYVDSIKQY
# Cytochrome P450 1A2 = target: T3, Cytochrome P450 1A2 (Homo sapiens, UniProt P05177); assay: Inhibition of CYP1A2 (unknown origin); assay type: ADME
# T3 sequence (P05177 whole entry): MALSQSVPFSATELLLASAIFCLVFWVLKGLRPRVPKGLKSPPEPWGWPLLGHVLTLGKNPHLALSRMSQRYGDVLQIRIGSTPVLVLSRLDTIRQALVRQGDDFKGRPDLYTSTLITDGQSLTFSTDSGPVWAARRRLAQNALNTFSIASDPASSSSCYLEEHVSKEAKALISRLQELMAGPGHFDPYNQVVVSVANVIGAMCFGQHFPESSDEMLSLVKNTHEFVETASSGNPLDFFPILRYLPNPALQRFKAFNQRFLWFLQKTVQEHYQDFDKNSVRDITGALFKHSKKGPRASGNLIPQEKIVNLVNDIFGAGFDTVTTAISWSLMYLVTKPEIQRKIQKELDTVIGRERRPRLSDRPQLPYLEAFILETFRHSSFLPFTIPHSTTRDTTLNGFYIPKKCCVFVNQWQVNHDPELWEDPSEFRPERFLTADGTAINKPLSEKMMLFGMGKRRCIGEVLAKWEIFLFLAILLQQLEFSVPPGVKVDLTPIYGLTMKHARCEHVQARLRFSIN
# [2] = target: Voltage-gated inwardly rectifying potassium channel KCNH2 (Homo sapiens, UniProt Q12809); assay: Inhibition of hERG; assay type: toxicity
# [3] = Metabolic stability in mouse liver microsomes assessed as compound remaining at 0.5 uM incubated for 10 mins in presence of NADPH by UV absorbance based assay; assay type: ADME, Microsome; conditions: read-out: Stability
# Sequence of Voltage-gated inwardly rectifying potassium channel KCNH2 (Q12809 whole entry): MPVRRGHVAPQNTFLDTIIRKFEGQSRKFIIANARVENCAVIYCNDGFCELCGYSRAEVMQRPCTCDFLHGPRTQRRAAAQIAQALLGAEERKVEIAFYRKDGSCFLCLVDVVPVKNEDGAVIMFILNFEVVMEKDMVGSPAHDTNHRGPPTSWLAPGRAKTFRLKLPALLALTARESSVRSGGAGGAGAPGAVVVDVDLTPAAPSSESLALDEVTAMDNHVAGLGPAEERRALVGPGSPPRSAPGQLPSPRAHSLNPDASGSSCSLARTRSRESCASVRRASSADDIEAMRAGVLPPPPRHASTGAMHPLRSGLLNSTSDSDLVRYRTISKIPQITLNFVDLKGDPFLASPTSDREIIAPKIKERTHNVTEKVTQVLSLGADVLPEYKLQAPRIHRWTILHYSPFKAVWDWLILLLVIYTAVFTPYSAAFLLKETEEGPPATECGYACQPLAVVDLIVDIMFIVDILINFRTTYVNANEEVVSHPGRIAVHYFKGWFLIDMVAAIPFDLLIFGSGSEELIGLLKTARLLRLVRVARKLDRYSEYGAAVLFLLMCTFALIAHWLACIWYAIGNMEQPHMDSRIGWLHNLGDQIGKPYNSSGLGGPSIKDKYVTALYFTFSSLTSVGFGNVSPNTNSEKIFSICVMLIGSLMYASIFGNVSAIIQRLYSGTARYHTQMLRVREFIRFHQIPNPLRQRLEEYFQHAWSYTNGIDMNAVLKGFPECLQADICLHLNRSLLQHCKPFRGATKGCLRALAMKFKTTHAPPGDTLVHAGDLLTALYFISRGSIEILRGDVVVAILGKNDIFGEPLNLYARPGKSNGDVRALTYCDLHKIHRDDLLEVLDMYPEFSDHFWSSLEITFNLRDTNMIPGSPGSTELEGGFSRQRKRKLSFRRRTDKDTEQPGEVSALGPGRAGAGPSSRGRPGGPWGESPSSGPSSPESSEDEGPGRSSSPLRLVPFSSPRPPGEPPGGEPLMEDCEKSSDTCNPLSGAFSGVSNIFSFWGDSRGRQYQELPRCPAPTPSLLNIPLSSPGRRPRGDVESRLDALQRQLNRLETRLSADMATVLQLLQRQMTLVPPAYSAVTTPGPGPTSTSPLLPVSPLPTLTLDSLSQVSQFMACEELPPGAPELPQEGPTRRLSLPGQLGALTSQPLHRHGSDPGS
structure (smiles),measurement,setting,value
CCC[C@@H](CCO)Nc1nc(N)nc2cnn(Cc3ncc(C4CCN(C5CCOCC5)CC4)cc3OC)c12,pEC50,Toll-like receptor 7,7.89
same,AUC(0-t),[1],0.655 µM·h
same,pEC50,Toll-like receptor 8,< 5.30
same,pIC50,Cytochrome P450 1A2,< 4.70
same,pIC50,[2],< 4.30
same,"remaining at 10 min, 0.5 µM",[3],100%
